Values of other authors, collected in US10493103B2, “Peroxide formulations and methods and applicators for using the same” (ACLARIS THERAPEUTICS, INC., priority 2014, dated 2019).
Like-named read-outs stand apart in the source and are kept apart here. Blank lines part the entries; values can stand above or below the molecule they belong to.

Test system: seborrheic keratosis
[1] = applied once daily for 16 weeks

SMILES: C=C1CC[C@H](O)C/C1=C/C=C1\CCC[C@]2(C)[C@@H]([C@H](C)CCCC(C)C)CC[C@@H]12 [topical vitamin D3 ointment, vitamin D3]
patients with an 80% or more improvement in lesions (once or twice daily for an average of 7.3 months (range 3-12 months)): 30%

SMILES: CCOC(=O)c1ccc(C#Cc2ccc3c(c2)C(C)(C)CCS3)nc1 [tazarotene cream, tazarotene]
effectiveness in seborrheic keratosis [1]: ineffective

SMILES: CC(O)C(=O)O.N (stereo not shown) [ammonium lactate]
effectiveness in seborrheic keratosis (in vivo): ineffective

complications of therapy (applied twice daily): burning, pruritus and redness
SMILES: CCOC(=O)c1ccc(C#Cc2ccc3c(c2)C(C)(C)CCS3)nc1 [tazarotene 0.1%, tazarotene]
subjects with efficacy (applied twice daily, off-label, 7/15 subjects): 47%

SMILES: CC(C)Cn1cnc2c(N)nc3ccccc3c21 [imiquimod cream, imiquimod]
effectiveness in seborrheic keratosis [1]: ineffective

SMILES: C=C1/C(=C\C=C2/CCC[C@]3(C)[C@@H]([C@H](C)/C=C/[C@@H](O)C4CC4)CC[C@@H]23)C[C@@H](O)C[C@@H]1O [calcipotriene ointment, calcipotriene]
effectiveness in seborrheic keratosis [1]: ineffective
